{
  "source": "ChEMBL document CHEMBL2401614",
  "about": "“Synthesis of artemisinin dimers using the Ugi reaction and their in vitro efficacy on breast cancer cells” (Bioorg Med Chem Lett, 2013)",
  "key": {"[1]": {"assay": "Cytotoxicity against human NCI60 cells relative to artesunate", "type": "functional"}, "MCF-10A [2]": {"system": "MCF-10A", "assay": "Selectivity index, ratio of IC50 for human MCF10A cells to IC50 for human BT474 cells", "type": "functional"}, "MCF-10A [3]": {"system": "MCF-10A", "assay": "Cytotoxicity against human MCF10A cells after 48 hrs by MTT assay", "type": "cell-based"}, "MCF-10A [4]": {"system": "MCF-10A", "assay": "Selectivity index, ratio of IC50 for human MCF10A cells to IC50 for human MDA-MB-231 cells", "type": "functional"}, "BT-474 [5]": {"system": "BT-474", "assay": "Cytotoxicity against human BT474 cells after 48 hrs by MTT assay", "type": "functional, cell-based", "conditions": "BT-474, 48 h"}, "MDA-MB-231": {"system": "MDA-MB-231", "assay": "Cytotoxicity against human MDA-MB-231 cells after 48 hrs by MTT assay", "type": "functional, cell-based", "conditions": "MDA-MB-231, 48 h"}, "BT-474 [6]": {"system": "BT-474", "assay": "Ratio of artemisinin dimer succinate IC50 to compound IC50 for human BT474 cells", "type": "functional"}},
  "data": [
    {"smiles": "C[C@H]1[C@@H](CC(COC(=O)CCC(=O)O)C[C@H]2O[C@@H]3O[C@@]4(C)CC[C@H]5[C@H](C)CC[C@@H]([C@H]2C)[C@@]35OO4)O[C@@H]2O[C@@]3(C)CC[C@H]4[C@H](C)CC[C@@H]1[C@@]24OO3", "note": "(stereo not given in full)", "values": [
      {"measurement": "fold change (FC)", "setting": "[1]", "value": "<=500"},
      {"measurement": "Ratio IC50", "setting": "MCF-10A [2]", "value": 210},
      {"measurement": "IC50", "setting": "MCF-10A [3]", "value": 21, "unit": "µM"},
      {"measurement": "Ratio IC50", "setting": "MCF-10A [4]", "value": 88},
      {"measurement": "IC50", "setting": "BT-474 [5]", "value": 0.1, "unit": "µM"},
      {"measurement": "IC50", "setting": "MDA-MB-231", "value": 0.24, "unit": "µM"}
    ]},
    {"smiles": "C[C@H]1[C@@H](CCCN(c2c(F)c(F)cc(F)c2F)C(CC[C@H]2O[C@@H]3O[C@@]4(C)CC[C@H]5[C@H](C)CC[C@@H]([C@H]2C)[C@@]35OO4)C(=O)NCC(=O)O)O[C@@H]2O[C@@]3(C)CC[C@H]4[C@H](C)CC[C@@H]1[C@@]24OO3", "note": "(stereo not given in full)", "values": [
      {"measurement": "Ratio IC50", "setting": "BT-474 [6]", "value": 8},
      {"measurement": "Ratio IC50", "setting": "MCF-10A [2]", "value": 8200},
      {"measurement": "IC50", "setting": "MCF-10A [3]", "value": 98, "unit": "µM"},
      {"measurement": "Ratio IC50", "setting": "MCF-10A [4]", "value": 43},
      {"measurement": "IC50", "setting": "BT-474 [5]", "value": 0.012, "unit": "µM"},
      {"measurement": "IC50", "setting": "MDA-MB-231", "value": 2.3, "unit": "µM"}
    ]},
    {"smiles": "COC(=O)CNC(=O)C(CC[C@H]1O[C@@H]2O[C@@]3(C)CC[C@H]4[C@H](C)CC[C@@H]([C@H]1C)[C@@]24OO3)N(C(=O)c1ccccc1)C(C)C", "note": "(stereo not given in full)", "values": [
      {"measurement": "IC50", "setting": "MCF-10A [3]", "value": "> 100", "unit": "µM"},
      {"measurement": "IC50", "setting": "BT-474 [5]", "value": "> 100", "unit": "µM"},
      {"measurement": "IC50", "setting": "MDA-MB-231", "value": "> 100", "unit": "µM"}
    ]},
    {"smiles": "COC(=O)CNC(=O)C(CC[C@H]1O[C@@H]2O[C@@]3(C)CC[C@H]4[C@H](C)CC[C@@H]([C@H]1C)[C@@]24OO3)N(CCC[C@H]1O[C@@H]2O[C@@]3(C)CC[C@H]4[C@H](C)CC[C@@H]([C@H]1C)[C@@]24OO3)C(=O)C(F)(F)F", "note": "(mixture of isomers)", "values": [
      {"measurement": "Ratio IC50", "setting": "MCF-10A [2]", "value": 0.7},
      {"measurement": "IC50", "setting": "MCF-10A [3]", "value": 4.6, "unit": "µM"},
      {"measurement": "Ratio IC50", "setting": "MCF-10A [4]", "value": 0.24},
      {"measurement": "IC50", "setting": "BT-474 [5]", "value": 6.6, "unit": "µM"},
      {"measurement": "IC50", "setting": "MDA-MB-231", "value": 19, "unit": "µM"}
    ]},
    {"smiles": "COC(=O)CNC(=O)C(CC[C@H]1O[C@@H]2O[C@@]3(C)CC[C@H]4[C@H](C)CC[C@@H]([C@H]1C)[C@@]24OO3)N(CCC[C@H]1O[C@@H]2O[C@@]3(C)CC[C@H]4[C@H](C)CC[C@@H]([C@H]1C)[C@@]24OO3)C(=O)c1ccccc1", "note": "(mixture of isomers)", "values": [
      {"measurement": "Ratio IC50", "setting": "MCF-10A [2]", "value": 6.3},
      {"measurement": "IC50", "setting": "MCF-10A [3]", "value": 5, "unit": "µM"},
      {"measurement": "Ratio IC50", "setting": "MCF-10A [4]", "value": 0.45},
      {"measurement": "IC50", "setting": "BT-474 [5]", "value": 0.79, "unit": "µM"},
      {"measurement": "IC50", "setting": "MDA-MB-231", "value": 11, "unit": "µM"}
    ]},
    {"smiles": "COC(=O)CNC(=O)C(CC[C@H]1O[C@@H]2O[C@@]3(C)CC[C@H]4[C@H](C)CC[C@@H]([C@H]1C)[C@@]24OO3)N(CCC[C@H]1O[C@@H]2O[C@@]3(C)CC[C@H]4[C@H](C)CC[C@@H]([C@H]1C)[C@@]24OO3)C(=O)c1cccc(OC)c1OC", "note": "(mixture of isomers)", "values": [
      {"measurement": "Ratio IC50", "setting": "MCF-10A [2]", "value": 0.98},
      {"measurement": "IC50", "setting": "MCF-10A [3]", "value": 5.7, "unit": "µM"},
      {"measurement": "Ratio IC50", "setting": "MCF-10A [4]", "value": 0.48},
      {"measurement": "IC50", "setting": "BT-474 [5]", "value": 5.8, "unit": "µM"},
      {"measurement": "IC50", "setting": "MDA-MB-231", "value": 12, "unit": "µM"}
    ]},
    {"smiles": "COC(=O)CNC(=O)C(CC[C@H]1O[C@@H]2O[C@@]3(C)CC[C@H]4[C@H](C)CC[C@@H]([C@H]1C)[C@@]24OO3)N(CCC[C@H]1O[C@@H]2O[C@@]3(C)CC[C@H]4[C@H](C)CC[C@@H]([C@H]1C)[C@@]24OO3)C(=O)c1ccc(N(C)C)cc1", "note": "(mixture of isomers)", "values": [
      {"measurement": "Ratio IC50", "setting": "MCF-10A [2]", "value": 17},
      {"measurement": "IC50", "setting": "MCF-10A [3]", "value": 15, "unit": "µM"},
      {"measurement": "Ratio IC50", "setting": "MCF-10A [4]", "value": 1.3},
      {"measurement": "IC50", "setting": "BT-474 [5]", "value": 0.88, "unit": "µM"},
      {"measurement": "IC50", "setting": "MDA-MB-231", "value": 12, "unit": "µM"}
    ]},
    {"smiles": "COC(=O)CNC(=O)C(CC[C@H]1O[C@@H]2O[C@@]3(C)CC[C@H]4[C@H](C)CC[C@@H]([C@H]1C)[C@@]24OO3)N(CCC[C@H]1O[C@@H]2O[C@@]3(C)CC[C@H]4[C@H](C)CC[C@@H]([C@H]1C)[C@@]24OO3)C(=O)c1cnccn1", "note": "(mixture of isomers)", "values": [
      {"measurement": "Ratio IC50", "setting": "MCF-10A [2]", "value": 15},
      {"measurement": "IC50", "setting": "MCF-10A [3]", "value": 25, "unit": "µM"},
      {"measurement": "Ratio IC50", "setting": "MCF-10A [4]", "value": 0.96},
      {"measurement": "IC50", "setting": "BT-474 [5]", "value": 1.7, "unit": "µM"},
      {"measurement": "IC50", "setting": "MDA-MB-231", "value": 26, "unit": "µM"}
    ]},
    {"smiles": "COC(=O)CNC(=O)C(CC[C@H]1O[C@@H]2O[C@@]3(C)CC[C@H]4[C@H](C)CC[C@@H]([C@H]1C)[C@@]24OO3)N(CCC[C@H]1O[C@@H]2O[C@@]3(C)CC[C@H]4[C@H](C)CC[C@@H]([C@H]1C)[C@@]24OO3)c1ccc([N+](=O)[O-])cc1", "note": "(mixture of isomers)", "values": [
      {"measurement": "Ratio IC50", "setting": "MCF-10A [2]", "value": 490},
      {"measurement": "IC50", "setting": "MCF-10A [3]", "value": 47, "unit": "µM"},
      {"measurement": "Ratio IC50", "setting": "MCF-10A [4]", "value": 39},
      {"measurement": "IC50", "setting": "BT-474 [5]", "value": 0.096, "unit": "µM"},
      {"measurement": "IC50", "setting": "MDA-MB-231", "value": 1.2, "unit": "µM"}
    ]},
    {"smiles": "C[C@H]1[C@H](OC(=O)CCC(=O)O)O[C@@H]2O[C@@]3(C)CC[C@H]4[C@H](C)CC[C@@H]1[C@@]24OO3", "note": "[ARTESUNATE]", "values": [
      {"measurement": "Ratio IC50", "setting": "MCF-10A [2]", "value": 2.7},
      {"measurement": "IC50", "setting": "MCF-10A [3]", "value": 21, "unit": "µM"},
      {"measurement": "Ratio IC50", "setting": "MCF-10A [4]", "value": 0.46},
      {"measurement": "IC50", "setting": "BT-474 [5]", "value": 7.8, "unit": "µM"},
      {"measurement": "IC50", "setting": "MDA-MB-231", "value": 46, "unit": "µM"}
    ]}
  ]
}
